Measurements published in US12570675B2, “Boronic acid compounds” (LG CHEM, LTD., priority 2020, dated 2026).

molecular target: Proteasome chymotrypsin-like activity (S26 protein from RPMI8226 cells) (Homo sapiens, UniProt P28074); assay type: biochemical; conditions: S26 protein from RPMI8226 cell extract 2 ug/well, substrate 20 uM, 37° C., 90 minutes; read-out: Proteasome chymotrypsin-like activity inhibition IC50
Outline: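 Inhibition is measured in crude proteasome (S26) from RPMI8226 cells at 2 ug/well, using 20 uM substrate specific to each activity: Suc-LLVY-AMC for chymotrypsin-like, Z-LLE-AMC for caspase-like. Compounds span a dilution series from 10 uM.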

Sequence of Proteasome chymotrypsin-like activity (S26 protein from RPMI8226 cells) (P28074 60-263 limits assumed): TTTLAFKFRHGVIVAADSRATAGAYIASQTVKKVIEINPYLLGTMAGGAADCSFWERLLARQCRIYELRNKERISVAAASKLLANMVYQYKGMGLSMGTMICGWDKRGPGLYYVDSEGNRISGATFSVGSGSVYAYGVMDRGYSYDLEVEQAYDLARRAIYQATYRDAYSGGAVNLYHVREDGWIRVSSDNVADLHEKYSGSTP

`CC(C)C[C@H](NC(=O)C1(Cc2ccccc2)CC(CNC(=O)c2ccn[nH]2)=NO1)B(O)O` (stereo partly drawn) [Example 169, ((1R)-1-(3-((1H-pyrazol-5-carboxamido)methyl)-5-benzyl-4,5-dihydroisoxazol-5-carboxamido)-3-methylbutyl)boronic acid] and `CC(C)C[C@H](NC(=O)C1(Cc2ccccc2)CC(CNC(=O)c2ccnn2C)=NO1)B(O)O` (stereo partly drawn) [Example 176, ((1R)-1-(5-benzyl-3-((1-methyl-1H-pyrazol-5-carboxamido)methyl)-4,5-dihydroisoxazol-5-carboxamido)-3-methylbutyl)boronic acid] cannot be ordered by IC50: under 25 nM for the first, under 25 nM for the second.

`CC(C)C[C@H](NC(=O)C1(Cc2ccccc2)CC(CNC(=O)c2ccn(C(C)C)n2)=NO1)B(O)O` (stereo partly drawn) [Example 172, ((1R)-1-(5-benzyl-3-((1-isopropyl-1H-pyrazol-3-carboxamido)methyl)-4,5-dihydroisoxazol-5-carboxamido)-3-methylbutyl)boronic acid] and `Cc1nn(C(C)C)cc1C(=O)NCC1=NOC(Cc2ccccc2)(C(=O)N[C@@H](CC(C)C)B(O)O)C1` (stereo partly drawn) [Example 206, ((1R)-1-(5-benzyl-3-((1-isopropyl-3-methyl-1H-pyrazol-4-carboxamido)methyl)-4,5-dihydroisoxazol-5-carboxamido)-3-methylbutyl)boronic acid] cannot be ordered by IC50: under 10 nM for the first, under 10 nM for the second.

`Cc1nc(C(=O)NCC2=NOC(Cc3ccccc3)(C(=O)N[C@@H](CC(C)C)B(O)O)C2)co1` (stereo partly drawn) [Example 173, ((1R)-1-(5-benzyl-3-((2-methyloxazol-4-carboxamido)methyl)-4,5-dihydroisoxazol-5-carboxamido)-3-methylbutyl)boronic acid] and `CC(C)C[C@H](NC(=O)C1(Cc2ccccc2)CC(CNC(=O)c2cc(C(C)C)on2)=NO1)B(O)O` (stereo partly drawn) [Example 182, ((1R)-1-(5-benzyl-3-((5-isopropylisoxazol-3-carboxamido)methyl)-4,5-dihydroisoxazol-5-carboxamido)-3-methylbutyl)boronic acid] cannot be ordered by IC50: under 25 nM for the first, under 10 nM for the second.

`CC(C)C[C@H](NC(=O)C1(Cc2c(F)cccc2F)CC(CNC(=O)c2nccc3ccccc23)=NO1)B(O)O` (stereo partly drawn) [Example 174, ((1R)-1-(5-(2,6-difluorobenzyl)-3-((isoquinolin-1-carboxamido)methyl)-4,5-dihydroisoxazol-5-carboxamido)-3-methylbutyl)boronic acid] and `CC(C)C[C@H](NC(=O)C1(Cc2cccc(F)c2F)CC(CNC(=O)c2nccc3ccccc23)=NO1)B(O)O` (stereo partly drawn) [Example 203, ((1R)-1-(5-(2,3-difluorobenzyl)-3-((isoquinolin-1-carboxamido)methyl)-4,5-dihydroisoxazol-5-carboxamido)-3-methylbutyl)boronic acid] cannot be ordered by IC50: under 10 nM for the first, under 10 nM for the second.

`CC(C)C[C@H](NC(=O)C1(Cc2cccc(Cl)c2)CC(CNC(=O)c2nccc3ccccc23)=NO1)B(O)O` (stereo partly drawn) [Example 175, ((1R)-1-(5-(3-chlorobenzyl)-3-((isoquinolin-1-carboxamido)methyl)-4,5-dihydroisoxazol-5-carboxamido)-3-methylbutyl)boronic acid] and `CC(C)C[C@H](NC(=O)C1(Cc2cccc(C(F)(F)F)c2)CC(CNC(=O)c2nccc3ccccc23)=NO1)B(O)O` (stereo partly drawn) [Example 215, ((1R)-1-(3-((isoquinolin-1-carboxamido)methyl)-5-(3-(trifluoromethyl)benzyl)-4,5-dihydroisoxazol-5-carboxamido)-3-methylbutyl)boronic acid] cannot be ordered by IC50: under 10 nM for the first, under 10 nM for the second.

`CC(C)C[C@H](NC(=O)C1(Cc2cccc(Cl)c2)CC(CNC(=O)c2cccn3ccnc23)=NO1)B(O)O` (stereo partly drawn) [Example 177, ((1R)-1-(5-(3-chlorobenzyl)-3-((imidazo[1,2-a]pyridin-8-carboxamido)methyl)-4,5-dihydroisoxazol-5-carboxamido)-3-methylbutyl)boronic acid] and `CC(C)C[C@H](NC(=O)C1(Cc2ccccc2)CC(CNC(=O)c2ccnc3c2ccn3C)=NO1)B(O)O` (stereo partly drawn) [Example 210, ((1R)-1-(5-benzyl-3-((1-methyl-1H-pyrrolo[2,3-b]pyridin-4-carboxamido)methyl)-4,5-dihydroisoxazol-5-carboxamido)-3-methylbutyl)boronic acid] cannot be ordered by IC50: under 10 nM for the first, under 10 nM for the second.

`CC(C)C[C@H](NC(=O)C1(C2(c3ccccc3)CC2)CC(CNC(=O)c2nccc3ccccc23)=NO1)B(O)O` (stereo partly drawn) [Example 180, ((1R)-1-(3-((isoquinolin-1-carboxamido)methyl)-5-(1-phenylcyclopropyl)-4,5-dihydroisoxazol-5-carboxamido)-3-methylbutyl)boronic acid] and `CC(C)C[C@H](NC(=O)C1(C2(c3ccccc3)CC2)CC(CNC(=O)c2cccn3ccnc23)=NO1)B(O)O` (stereo partly drawn) [Example 181, ((1R)-1-(3-((imidazo[1,2-a]pyridin-8-carboxamido)methyl)-5-(1-phenylcyclopropyl)-4,5-dihydroisoxazol-5-carboxamido)-3-methylbutyl)boronic acid] cannot be ordered by IC50: under 50 nM for the first, under 50 nM for the second.

`CC(C)C[C@H](NC(=O)C1(Cc2cc(F)cc(F)c2)CC(CNC(=O)c2nccc3ccccc23)=NO1)B(O)O` (stereo partly drawn) [Example 183, ((1R)-1-(5-(3,5-difluorobenzyl)-3-((isoquinolin-1-carboxamido)methyl)-4,5-dihydroisoxazol-5-carboxamido)-3-methylbutyl)boronic acid] and `COCC1(C(=O)N[C@@H](CC(C)C)B(O)O)CC(CNC(=O)c2nccc3ccccc23)=NO1` (stereo partly drawn) [Example 192, ((1R)-1-(3-((isoquinolin-1-carboxamido)methyl)-5-(methoxymethyl)-4,5-dihydroisoxazol-5-carboxamido)-3-methylbutyl)boronic acid] cannot be ordered by IC50: under 10 nM for the first, under 10 nM for the second.

`CC(C)C[C@H](NC(=O)C1(Cc2ccccc2)CC(CNC(=O)c2c(Cl)cnn2C)=NO1)B(O)O` (stereo partly drawn) [Example 184, ((1R)-1-(5-benzyl-3-((4-chloro-1-methyl-1H-pyrazol-5-carboxamido)methyl)-4,5-dihydroisoxazol-5-carboxamido)-3-methylbutyl)boronic acid] and `COCCn1nccc1C(=O)NCC1=NOC(Cc2ccccc2)(C(=O)N[C@@H](CC(C)C)B(O)O)C1` (stereo partly drawn) [Example 191, ((1R)-1-(5-benzyl-3-((1-(2-methoxyethyl)-1H-pyrazol-5-carboxamido)methyl)-4,5-dihydroisoxazol-5-carboxamido)-3-methylbutyl)boronic acid] cannot be ordered by IC50: under 10 nM for the first, under 25 nM for the second.

`COC[C@@H](NC(=O)c1nccc2ccccc12)C1=NOC(Cc2ccccc2)(C(=O)N[C@@H](CC(C)C)B(O)O)C1` (stereo partly drawn) [Example 185, ((1R)-1-(5-benzyl-3-((S)-1-(isoquinolin-1-carboxamido)-2-methoxyethyl)-4,5-dihydroisoxazol-5-carboxamido)-3-methylbutyl)boronic acid] and `COC[C@H](NC(=O)c1cccc(C)n1)C1=NOC(Cc2ccccc2)(C(=O)N[C@@H](CC(C)C)B(O)O)C1` (stereo partly drawn) [Example 195, ((1R)-1-(5-benzyl-3-((R)-2-methoxy-1-(6-methylpicolinamido)ethyl)-4,5-dihydroisoxazol-5-carboxamido)-3-methylbutyl)boronic acid] cannot be ordered by IC50: under 10 nM for the first, under 50 nM for the second.

`CCOCC1(C(=O)N[C@@H](CC(C)C)B(O)O)CC(CNC(=O)c2nccc3ccccc23)=NO1` (stereo partly drawn) [Example 193, ((1R)-1-(5-(ethoxymethyl)-3-((isoquinolin-1-carboxamido)methyl)-4,5-dihydroisoxazol-5-carboxamido)-3-methylbutyl)boronic acid] and `CC(C)C[C@H](NC(=O)C1(COC2CCCCC2)CC(CNC(=O)c2nccc3ccccc23)=NO1)B(O)O` (stereo partly drawn) [Example 214, ((1R)-1-(5-((cyclohexyloxy)methyl)-3-((isoquinolin-1-carboxamido)methyl)-4,5-dihydroisoxazol-5-carboxamido)-3-methylbutyl)boronic acid] cannot be ordered by IC50: under 10 nM for the first, under 10 nM for the second.

`Cc1cccc(C(=O)N[C@@H](CC(C)C)C2=NOC(Cc3ccccc3)(C(=O)N[C@@H](CC(C)C)B(O)O)C2)n1` (stereo partly drawn) [Example 194, ((1R)-1-(5-benzyl-3-((S)-3-methyl-1-(6-methylpicolinamido)butyl)-4,5-dihydroisoxazol-5-carboxamido)-3-methylbutyl)boronic acid] and `CC(C)C[C@H](NC(=O)C1(Cc2ccccc2)CC(CNC(=O)c2cn(C)c3ccccc23)=NO1)B(O)O` (stereo partly drawn) [Example 208, ((1R)-1-(5-benzyl-3-((1-methyl-1H-indol-3-carboxamido)methyl)-4,5-dihydroisoxazol-5-carboxamido)-3-methylbutyl)boronic acid] cannot be ordered by IC50: under 250 nM for the first, under 10 nM for the second.

`CC(C)C[C@H](NC(=O)C1(Cc2ccccc2)CC(CNC(=O)c2ccnn2C2CCOCC2)=NO1)B(O)O` (stereo partly drawn) [Example 197, ((1R)-1-(5-benzyl-3-((1-(tetrahydro-2H-pyran-4-yl)-1H-pyrazol-5-carboxamido)methyl)-4,5-dihydroisoxazol-5-carboxamido)-3-methylbutyl)boronic acid] and `Cc1cc(C(=O)NCC2=NOC(Cc3ccccc3)(C(=O)N[C@@H](CC(C)C)B(O)O)C2)n(-c2ccccn2)n1` (stereo partly drawn) [Example 213, ((1R)-1-(5-benzyl-3-((3-methyl-1-(pyridin-2-yl)-1H-pyrazol-5-carboxamido)methyl)-4,5-dihydroisoxazol-5-carboxamido)-3-methylbutyl)boronic acid] cannot be ordered by IC50: under 10 nM for the first, under 10 nM for the second.

`CC(C)C[C@H](NC(=O)C12CCCC1C(CNC(=O)c1nccc3ccccc13)=NO2)B(O)O` (stereo partly drawn) [Example 198, ((1R)-1-(3-((isoquinolin-1-carboxamido)methyl)-3a,5,6,6a-tetrahydro-4H-cyclopenta[d]isoxazol-6a-carboxamido)-3-methylbutyl)boronic acid] and `CC(C)C[C@H](NC(=O)C12CCCC1C(CNC(=O)c1cccn3ccnc13)=NO2)B(O)O` (stereo partly drawn) [Example 199, ((1R)-1-(3-((imidazo[1,2-a]pyridin-8-carboxamido)methyl)-3a,5,6,6a-tetrahydro-4H-cyclopenta[d]isoxazol-6a-carboxamido)-3-methylbutyl)boronic acid] cannot be ordered by IC50: under 100 nM for the first, under 1000 nM for the second.
